Assay results from patent publication US7632633B2, “Method for determining the degree of protein oxidation in a skin sample using oxidized protein in stratum corneum as an indicator” (Shiseido Company, Ltd., priority 2004, dated 2009).

Key:
[1] = tested on: stratum corneum of porcine skin; test: Stratum corneum transparency of dry pig skin after oxidation treatment (observation); settings: dry pig skin immersed in acrolein 0, 1, 10 and 100 mM for 3 hours; dried (humidity 50%, 25° C.), observed over 24 hours
Protocol: Dry pig skin (Alloask, Taiho Pharmaceutical) was immersed in water for 3 days. The pig skin was subjected to oxidation treatment by immersing in an acrolein solution (Tokyo Chemical Industry) at 0, 1, 10 and 100 mM for 3 hours. Acrolein oxidizes by acting on protein resulting in the formation of an aldehyde-protein adduct. Following oxidation treatment, the pig skin was rinsed with water for 1 hour. After rinsing, the pig skin was initially dried (humidity: 50%, temperature: 25° C.) in a Petri dish with the stratum corneum side facing upward followed by observation of the dried pig skin over the course of 24 hours.

[2] = tested on: stratum corneum of porcine skin; test: Stratum corneum water holding capacity of dry pig skin after oxidation treatment (SKINCON-200); settings: dry pig skin immersed in acrolein 0, 1, 10 and 100 mM for 3 hours; dried at humidity 50%, temperature 250° C., measured 15 minutes later
Protocol: Dry pig skin (Alloask, Taiho Pharmaceutical) was immersed in water for 3 days. The pig skin was removed and subjected to oxidation treatment by immersing in an acrolein solution (Tokyo Chemical Industry) at 0, 1, 10 and 100 mM for 3 hours. Acrolein oxidizes by acting on protein resulting in the formation of an aldehyde-protein adduct. Following oxidation treatment, the pig skin was rinsed with water for 1 hour. After rinsing, the pig skin was initially dried (humidity: 50%, temperature: […]) in a Petri dish with the stratum corneum side facing upward followed 15 minutes later by measuring the moisture content of the stratum corneum with the SKINCON-200 (IBS).
The results of measuring the moisture content of the stratum corneum are shown in FIG. 1 as skin conductance values.

[3] = tested on: stratum corneum of black pig skin; test: Stratum corneum water holding capacity of black pig skin after oxidation treatment (SKINCON-200); settings: 1 hour
Protocol: Black pig skin was subjected to oxidation treatment for 1 hour with a 10 mM acrolein solution. After rinsing with water for 1 hour, the water was carefully wiped off, and the change in the water content of the stratum corneum over time was measured with the SKINCON-200.
Black pig skin was treated for 1 hour with 20 mM hypochlorous acid. After rinsing with water for 1 hour, the water was carefully wiped off, and the change in the water content of the stratum corneum over time was measured with the SKINCON-200.

[4] = tested on: stratum corneum of human forearm skin; test: Stratum corneum water holding capacity of human forearm skin after occlusion treatment (SKINCON-200); format: in vivo; settings: occlusion 1 hour, 20 mM hypochlorous acid vs PBS
Protocol: Human forearm skin was subjected to occlusion treatment for 1 hour with PBS or 20 mM hypochlorous acid. After rinsing with water for 1 hour, the water was carefully wiped off, and the change in the water content of the stratum corneum over time was measured with the SKINCON-200.

Compound	transparency of the stratum corneum [1]	moisture content of the stratum corneum (skin conductance) [2]	change in the water content of the stratum corneum over time (ability to hold water) ([3]; 10 mM acrolein solution)	change in the water content of the stratum corneum over time (ability to hold water) ([3]; 20 mM hypochlorous acid)	change in the water content of the stratum corneum over time (water holding capacity) [4]
C=CC=O [acrolein]	transparency decreased concentration-dependently	decrease in moisture content was observed that was dependent on the concentration	A decrease was observed in the ability of stratum corneum of the pig skin to hold water	–	–
OCl [hypochlorous acid]	–	–	–	A decrease was observed in the ability of stratum corneum of the pig skin to hold water	decrease in water holding capacity
